Holding throughout (assay): relative viability (nuclei count vs DMSO), 5 days (fraction); higher = more cells survive
Compound in the test “AT-7519 + Luminespib”: O=C(NC1CCNCC1)c1n[nH]cc1NC(=O)c1c(Cl)cccc1Cl [AT-7519] + CCNC(=O)c1noc(-c2cc(C(C)C)c(O)cc2O)c1-c1ccc(CN2CCOCC2)cc1 [Luminespib] (partner 0.01 µM)
The essentials:
(§1)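 A single step with final 0.05% Triton X-100, 1% formaldehyde and 1 ug/ml Hoechst fixed the cells and stained nuclei 5 days after treatment. Lung cancer cell lines in 1536-well plates had been treated by pin tool the day after seeding with one drug alone or a fixed anchor-drug dose plus five library-drug doses (not always all listed) in √10 steps, and nuclei were counted on 4× images. Relative viability is the ratio of nuclei in treated wells to nuclei in vehicle wells, taken as the median of duplicate plates.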

Compound in test [1]: C1=CC2=C(C=C(C(=C2N=C1)O)N=NC3=CC4=C(C=C3)C=C(C=C4)S(=O)(=O)O)S(=O)(=O)O + Nc1nc2[nH]cc(CCc3ccc(C(=O)N[C@@H](CCC(=O)O)C(=O)O)cc3)c2c(=O)[nH]1 [Pemetrexed] (partner 0.2 µM)
The essentials: as §1

Compound in test [2]: C1=CC2=C(C=C(C(=C2N=C1)O)N=NC3=CC4=C(C=C3)C=C(C=C4)S(=O)(=O)O)S(=O)(=O)O + Cc1nc(Nc2ncc(C(=O)Nc3c(C)cccc3Cl)s2)cc(N2CCN(CCO)CC2)n1 [Dasatinib] (partner 0.075 µM)
The essentials:
as §1

Compound in test [3]: C1=CC2=C(C=C(C(=C2N=C1)O)N=NC3=CC4=C(C=C3)C=C(C=C4)S(=O)(=O)O)S(=O)(=O)O + C[C@@H](Oc1cc(-c2cnn(C3CCNCC3)c2)cnc1N)c1c(Cl)ccc(F)c1Cl [Crizotinib] (partner 1 µM)
In short, it runs like this: as §1

As for UMC-11, the relative viability came out at 1.06 with AT-7519 + Luminespib (first compound 0.01 µM); 0.98 in the test with AT-7519 + Luminespib (first compound 0.03162 µM); 0.716 with AT-7519 + Luminespib (first compound 0.3162 µM); 0.394 in the test with AT-7519 + Luminespib (first compound 1 µM); 0.754 in test [1] (first compound 0.08 µM); 0.853 in test [1] (first compound 0.253 µM). Also, the relative viability in test [1] (first compound 0.8 µM) is 0.783; in test [1] (first compound 2.53 µM), 0.717; in test [1] (first compound 8 µM) it was 0.768; in test [2] (first compound 0.08 µM) it was 0.493; in test [2] (first compound 0.253 µM), 0.454; in test [2] (first compound 0.8 µM), 0.456. The relative viability is 0.439 in test [2] (first compound 2.53 µM); 0.441 in test [2] (first compound 8 µM); 0.818 in test [3] (first compound 0.08 µM); 0.584 in test [3] (first compound 0.253 µM); 0.491 in test [3] (first compound 0.8 µM); 0.693 in test [3] (first compound 2.53 µM). Further, in test [3] (first compound 8 µM), the relative viability came out at 0.717.

Values taken from the supplement of paper PMC10307832.
